Data taken from US10166218B2, “3-(1H-indol-2-yl)-1H-pyrazolo[3,4-C]pyridines and therapeutic uses thereof” (Samumed, LLC, priority 2015, dated 2019).

Tests used:
[1] = system: primary human fibroblasts derived from IPF patients (LL29 cells) treated with TGF-β1; α-smooth muscle actin (αSMA); experiment: Inhibition of the fibrotic process: αSMA staining in TGF-β1 treated primary human fibroblasts from IPF patients (LL29 cells); assay type: cell-based; details: Fibroblast, 96 h, TGF-β1 20 ng/mL, 4 days; for EC50: % cells positive for αSMA; for inhibition at 10 µM: αSMA, read-out: percent inhibition at 10 μM (given for EC50 of >10 μM)
Summary of the method: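 LL29 cells plated in F12 with 1% FBS, compounds added as 11-point 1:2 series (10 μM to 1.87 nM, 0.1% DMSO), then TGF-β1 20 ng/mL; 4 days at 37 °C. Fixed, αSMA immunostained, imaged; SYTOX-positive cells excluded. % αSMA-positive cells normalized to TGF-β1 wells; EC50 by non-linear regression, or % inhibition at 10 μM.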

[2] = system: primary human mesenchymal stem cells (hMSCs); experiment: Induction of chondrogenesis in primary human mesenchymal stem cells (chondrogenic nodules); assay type: cell-based; details: 144 h, 6 days; for Emax: nodules, relative to TGF-β3 (10 ng/mL) positive control, read-out: Max. Activity as % TGF-β3 activity; for EC50: concentration required to induce 50% levels of chondrogenesis of TGF-β3 positive control, read-out: Conc (nM) of 50% TGF-β3 activity
Experimental: Representative compounds were screened using primary human mesenchymal stem cells (hMSCs) to determine their ability to induce chondrogenesis (process by which cartilage is developed).
Primary human mesenchymal stem cells (hMSCs) were purchased from Lonza (Walkersville, Md.) and expanded in Mesenchymal Stem Cell Growth Media (Lonza). Cells between passage 3 and 6 were used for the experiments.
Each compound was dissolved in DMSO as a 10 mM stock and used to prepare compound source plates. Serial dilution (1:3, 6-point dose-response curves from 2700 nM to 10 nM) and compound transfer was performed using the ECHO 550 (Labcyte, Sunnyvale, Calif.) into 96-well clear bottom assay plates (Greiner Bio-One) with appropriate DMSO backfill for a final DMSO concentration of 0.03%. hMSCs were plated at 20,000 cells/well in 250 μL/well Incomplete Chondrogenic Induction Medium (Lonza; DMEM, dexamethasone, ascorbate, insulin-transferrin-selenium [ITS supplement], gentamycin-amphotericin [GA-1000], sodium pyruvate, proline and L-glutamine). TGF-β3 (10 ng/mL) was used as a positive control for differentiation while negative control wells were treated with 75 nL DMSO for normalization and calculating EC50 values. Cells were incubated at 37° C. and 5% CO2 for 6 days. To image chondrogenic nodules, the cells were fixed using 4% formaldehyde (Electron Microscopy Sciences), and stained with 2 μg/mL Rhodamine B (Sigma-Aldrich) and 20 μM Nile Red (Sigma-Aldrich) [Johnson K., et. al, A Stem Cell-Based Approach to Cartilage Repair, Science, (2012), 336(6082), 717-721]. The nodules imaged (4 images per well at 4× magnification) by excitation at 531 nm and emission at 625 nm and quantified using the CellInsight CX5 (Thermo Scientific). Number of nodules in each well was normalized to the average of 3 DMSO treated wells on the same plate using Excel (Microsoft Inc.). The normalized averages (fold change over DMSO) of 3 replicate wells for each compound concentration were calculated. Due to solubility limitations of some of the compounds, curve fitting was incomplete leading to inaccurate EC50 determinations.
Using TGF-β3 as a positive control, the concentration of representative compounds required to induce 50% levels of chondrogenesis is reported. In addition, the maximum activity of each compound and the respective dose that each compound reached maximum chondrogenesis activity is reported.

EC50 [2] [nM]	SMILES	EC50 [1] [µM]	inhibition at 10 µM [1] [%]	Emax [2] [%]
10	CN(C)CCNc1cc(F)cc(-c2cccc3[nH]c(-c4n[nH]c5cnc(-c6cncc(O)c6)cc45)cc23)c1 [Compound 817, 5-(3-(4-(3-((2-(Dimethylamino)ethyl)amino)-5-fluorophenyl)-1H-indol-2-yl)-1H-pyrazolo[3,4-c]pyridin-5-yl)pyridin-3-ol]	0.519	–	66
30	Cc1ccncc1-c1cc2c(-c3cc4c(-c5ccccn5)cccc4[nH]3)n[nH]c2cn1 [Compound 145, 5-(4-Methylpyridin-3-yl)-3-(4-(pyridin-2-yl)-1H-indol-2-yl)-1H-pyrazolo [3,4-c]pyridine]	0.223	–	90
900	CCCCC(=O)Nc1cncc(-c2cc3c(-c4cc5c(-c6ccccn6)cccc5[nH]4)n[nH]c3cn2)c1 [Compound 159, N-(5-(3-(4-(Pyridin-2-yl)-1H-indol-2-yl)-1H-pyrazolo[3,4-c]pyridin-5-yl)pyridin-3-yl)pentanamide]	0.269	–	84
30	CCNCc1cncc(-c2cc3c(-c4cc5c(-c6cc(F)cc(NCCN(C)C)c6)cccc5[nH]4)n[nH]c3cn2)c1 [Compound 454, N^1-(3-(2-(5-(5-((Ethylamino)methyl)pyridin-3-yl)-1H-pyrazolo[3,4-c]pyridin-3-yl)-1H-indol-4-yl)-5-fluorophenyl)-N^2,N^2-dimethylethane-1,2-diamine]	0.583	–	294
10	CN(C)CCNc1cc(F)cc(-c2cccc3[nH]c(-c4n[nH]c5cnc(-c6cncc(NC(=O)C(C)(C)C)c6)cc45)cc23)c1 [Compound 456, N-(5-(3-(4-(3-((2-(Dimethylamino)ethyl)amino)-5-fluorophenyl)-1H-indol-2-yl)-1H-pyrazolo[3,4-c]pyridin-5-yl)pyridin-3-yl)pivalamide]	0.444	–	87
100	CN(C)CCNc1cc(F)cc(-c2cccc3[nH]c(-c4n[nH]c5cnc(-c6cncc(N)c6)cc45)cc23)c1 [Compound 451, N^1-(3-(2-(5-(5-Aminopyridin-3-yl)-1H-pyrazolo[3,4-c]pyridin-3-yl)-1H-indol-4-yl)-5-fluorophenyl)-N^2,N^2-dimethylethane-1,2-diamine]	0.046	–	180
300	Nc1cncc(-c2cc3c(-c4cc5c(-c6ccccn6)cccc5[nH]4)n[nH]c3cn2)c1 [Compound 143, 5-(3-(4-(Pyridin-2-yl)-1H-indol-2-yl)-1H-pyrazolo[3,4-c]pyridin-5-yl) pyridin-3-amine]	0.098	–	118

More lines, now with the values behind:

SMILES	EC50 [2] [nM]	EC50 [1] [µM]	inhibition at 10 µM [1] [%]	Emax [2] [%]
CC(C)C(=O)Nc1cncc(-c2cc3c(-c4cc5c(N6CCN(C)CC6)cccc5[nH]4)n[nH]c3cn2)c1 [Compound 233]	–	> 10	74.5	36
CN(C)CCNc1cc(F)cc(-c2cccc3[nH]c(-c4n[nH]c5cnc(-c6cncc(CN(C)C)c6)cc45)cc23)c1 [Compound 461, N^1-(3-(2-(5-(5-((Dimethylamino)methyl)pyridin-3-yl)-1H-pyrazolo[3,4-c]pyridin-3-yl)-1H-indol-4-yl)-5-fluorophenyl)-N^2,N^2-dimethylethane-1,2-diamine]	–	1.18	–	52
Nc1cncc(-c2cc3c(-c4cc5c(-c6ccccc6F)cccc5[nH]4)n[nH]c3cn2)c1 [Compound 59, 5-(3-(4-(2-Fluorophenyl)-1H-indol-2-yl)-1H-pyrazolo[3,4-c]pyridin-5-yl) pyridin-3-amine]	30	0.144	–	94
CC(C)C(=O)Nc1cncc(-c2cc3c(-c4cc5c(-c6cccnc6)cccc5[nH]4)n[nH]c3cn2)c1 [Compound 93, N-(5-(3-(4-(Pyridin-3-yl)-1H-indol-2-yl)-1H-pyrazolo[3,4-c]pyridin-5-yl)pyridin-3-yl)isobutyramide]	10	0.298	–	201
O=C(Nc1cncc(-c2cc3c(-c4cc5c(-c6cccnc6)cccc5[nH]4)n[nH]c3cn2)c1)c1ccccc1 [Compound 95, N-(5-(3-(4-(Pyridin-3-yl)-1H-indol-2-yl)-1H-pyrazolo[3,4-c]pyridin-5-yl)pyridin-3-yl)benzamide]	100	0.166	–	236
c1cncc(-c2cc3c(-c4cc5c(-c6cccnc6)cccc5[nH]4)n[nH]c3cn2)c1 [Compound 88, 5-(Pyridin-3-yl)-3-(4-(pyridin-3-yl)-1H-indol-2-yl)-1H-pyrazolo[3,4-c]pyridine]	30	0.305	–	141
CCC(=O)Nc1cncc(-c2cc3c(-c4cc5c(-c6cccnc6)cccc5[nH]4)n[nH]c3cn2)c1 [Compound 85, N-(5-(3-(4-(Pyridin-3-yl)-1H-indol-2-yl)-1H-pyrazolo[3,4-c]pyridin-5-yl)pyridin-3-yl)propionamide]	–	0.553	–	101
Fc1ccc(-c2cccc3[nH]c(-c4n[nH]c5cnc(-c6cncc(CN7CCCC7)c6)cc45)cc23)cc1 [Compound 42, 3-(4-(4-Fluorophenyl)-1H-indol-2-yl)-5-(5-(pyrrolidin-1-ylmethyl)pyridin-3-yl)-1H-pyrazolo[3,4-c]pyridine]	300	0.078	–	164
CCNCc1cncc(-c2cc3c(-c4cc5c(-c6ccc(F)cc6)cccc5[nH]4)n[nH]c3cn2)c1 [Compound 34, N-((5-(3-(4-(4-Fluorophenyl)-1H-indol-2-yl)-1H-pyrazolo[3,4-c]pyridin-5-yl)pyridin-3-yl)methyl)ethanamine]	900	0.029	–	268
CCCCC(=O)Nc1cncc(-c2cc3c(-c4cc5c(-c6ccccc6F)cccc5[nH]4)n[nH]c3cn2)c1 [Compound 75, N-(5-(3-(4-(2-Fluorophenyl)-1H-indol-2-yl)-1H-pyrazolo[3,4-c]pyridin-5-yl)pyridin-3-yl)pentanamide]	–	2.03	–	–
c1cc(-c2ccoc2)c2cc(-c3n[nH]c4cnc(-c5cncc(CN6CCCCC6)c5)cc34)[nH]c2c1 [Compound 323, 3-(4-(Furan-3-yl)-1H-indol-2-yl)-5-(5-(piperidin-1-ylmethyl)pyridin-3-yl)-1H-pyrazolo[3,4-c]pyridine]	–	0.261	–	85
c1csc(-c2cccc3[nH]c(-c4n[nH]c5cnc(C6CCNCC6)cc45)cc23)c1 [Compound 725, 5-(Piperidin-4-yl)-3-(4-(thiophen-2-yl)-1H-indol-2-yl)-1H-pyrazolo[3,4-c]pyridine]	–	> 10	4.5	–
CN(C)CCOc1cncc(-c2cc3c(-c4cc5c(-c6cccnc6)cccc5[nH]4)n[nH]c3cn2)c1 [Compound 591, N,N-Dimethyl-2-((5-(3-(4-(pyridin-3-yl)-1H-indol-2-yl)-1H-pyrazolo[3,4-c]pyridin-5-yl)pyridin-3-yl)oxy)ethan-1-amine]	–	2.19	–	36
c1cc(-c2ccoc2)c2cc(-c3n[nH]c4cnc(-c5cn[nH]c5)cc34)[nH]c2c1 [Compound 711, 3-(4-(Furan-3-yl)-1H-indol-2-yl)-5-(1H-pyrazol-4-yl)-1H-pyrazolo[3,4-c]pyridine]	–	0.125	–	–
CC(C)C(=O)Nc1cncc(-c2cc3c(-c4cc5c(-c6ccccc6F)cccc5[nH]4)n[nH]c3cn2)c1 [Compound 65, N-(5-(3-(4-(2-Fluorophenyl)-1H-indol-2-yl)-1H-pyrazolo[3,4-c]pyridin-5-yl)pyridin-3-yl)isobutyramide]	–	1.11	–	–
